Experimental data published in patent publication US20030203975A1, “Anti-cancer agents” (priority 1998, published 2003).

Tests used:
[1] = molecular target: T1, Topoisomerase IIβ (Homo sapiens, UniProt Q02880); test: Topo II decatenation assay; format: biochemical; conditions: unit not given; kDNA substrate; compound at 1, 10, 25 and 50 μM in protocol
Experimental: (§1) Topisomerase Decatenation Assay.
(§2) This method uses catenated DNA substrate prepared from the kinetoplast of the insect trypanosome Crithidia fasciculata. Upon incubation with topo II, which engages DNA in a double stranded breakage-reunion cycle, DNA minicircles are released. Addition of topo-inhibiting drugs may prevent decatenation.
(§3) Topo II Decatenation Assay Protocol
(§4) This assay is the same as the Topo II Relaxation assay except that the pBR 322 Plasmid DNA is replaced with kDNA.
(§5) Results are included in Table 3 below

[2] = molecular target: T1, Topoisomerase IIβ; test: Topo II relaxation assay; format: biochemical; design: key: ‘—’ = Not active; conditions: unit not given; compound at 1, 10, 25 and 50 μM in protocol
Experimental: (§6) Topo II Relaxation Assay Protocol
(§7) 10×Topo II Relaxation Buffer
(§8) 500 mM Tris-HCl (pH 7.5); 100 mM mgCI2; 50 mM EDTA; 300 mg/mI BSA; 10 mM DTT; −20° C.

[3] = molecular target: T2, Topoisomerase IIα (Homo sapiens, UniProt P11388); test: Topo II relaxation assay; format: biochemical; design: key: ‘—’ = Not active; conditions: unit not given; compound at 1, 10, 25 and 50 μM in protocol
Experimental: as §6, §7, §8

[4] = molecular target: T2, Topoisomerase IIα; test: Topo II decatenation assay; format: biochemical; design: key: ‘—’ = Not active; conditions: unit not given; kDNA substrate; compound at 1, 10, 25 and 50 μM in protocol
Experimental: as §1, §2, §3, §4, §5

[5] = tested on: MAC 15A adenocarcinoma of the colon; test: In vitro chemosensitivity against MAC 15A adenocarcinoma (MTT assay); format: cell-based; conditions: Mus musculus, MAC15A, 96 hours continuous exposure
Experimental: In Vitro Activity Against MAC 15A Adenocarcinoma.
MAC 15A cells were grown in RPMI 1640 medium supplemented with 10% foetal calf serum containing a 1% antibiotic mixture under standard tissue culture conditions and were maintained at 37° C. in a humidified atmosphere of 5% CO2 in air. Cells were harvested from a stock culture in exponential growth phase and plated in 96-well flat-bottomed plates to achieve a final density of 2×10^3 cells per well. After 2 hours incubation medium was replaced with either fresh medium containing 0.5% DMSO (control) or medium containing test compound dissolved in DMSO at a concentrations from 10 mM to 1 nM. Chemosensitivity was assessed using MTT assay by the method of Plumb et al Cancer Research 49 (1989) 4435-4440.
Following 96 hours continuous exposure to drug at 37° C. cells were incubated with fresh drug-free medium immediately prior to addition of MTT solution (5 mg/ml). Medium and MTT were removed after 4 hours and 150 μl of DMSO was added. For each plate the absorbance of the resulting solution was measured at the analytical wavelength 550 nm for formazan product, using a Labsystem Mutiskan. IC50 values were obtained from growth curves of drug concentration against % survival and are expressed in μm.

[6] = molecular target: T3, Topoisomerase I (Homo sapiens, UniProt P11387); test: Topo I cleavage assay; format: biochemical; conditions: at 10 μM
T3 sequence (P11387 1-765): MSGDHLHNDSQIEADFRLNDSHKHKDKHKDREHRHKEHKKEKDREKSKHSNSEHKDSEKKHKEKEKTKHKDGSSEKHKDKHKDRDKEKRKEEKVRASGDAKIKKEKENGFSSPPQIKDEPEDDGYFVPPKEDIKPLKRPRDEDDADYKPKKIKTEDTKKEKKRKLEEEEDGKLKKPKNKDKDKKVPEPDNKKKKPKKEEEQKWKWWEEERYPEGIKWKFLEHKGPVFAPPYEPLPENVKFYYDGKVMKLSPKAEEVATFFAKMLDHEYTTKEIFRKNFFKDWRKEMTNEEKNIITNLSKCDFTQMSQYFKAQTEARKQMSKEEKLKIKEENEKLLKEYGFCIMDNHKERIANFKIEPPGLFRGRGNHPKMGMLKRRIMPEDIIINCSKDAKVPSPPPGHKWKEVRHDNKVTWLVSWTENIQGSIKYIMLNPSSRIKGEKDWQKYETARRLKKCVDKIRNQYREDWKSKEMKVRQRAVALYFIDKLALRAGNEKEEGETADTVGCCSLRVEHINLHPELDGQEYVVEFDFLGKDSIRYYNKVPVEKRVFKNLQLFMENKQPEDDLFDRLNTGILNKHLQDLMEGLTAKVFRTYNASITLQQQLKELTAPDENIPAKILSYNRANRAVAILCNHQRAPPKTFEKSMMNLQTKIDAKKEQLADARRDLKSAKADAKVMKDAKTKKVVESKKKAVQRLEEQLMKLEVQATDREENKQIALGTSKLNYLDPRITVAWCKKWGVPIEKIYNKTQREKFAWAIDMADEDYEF

T2 sequence (P11388 whole entry): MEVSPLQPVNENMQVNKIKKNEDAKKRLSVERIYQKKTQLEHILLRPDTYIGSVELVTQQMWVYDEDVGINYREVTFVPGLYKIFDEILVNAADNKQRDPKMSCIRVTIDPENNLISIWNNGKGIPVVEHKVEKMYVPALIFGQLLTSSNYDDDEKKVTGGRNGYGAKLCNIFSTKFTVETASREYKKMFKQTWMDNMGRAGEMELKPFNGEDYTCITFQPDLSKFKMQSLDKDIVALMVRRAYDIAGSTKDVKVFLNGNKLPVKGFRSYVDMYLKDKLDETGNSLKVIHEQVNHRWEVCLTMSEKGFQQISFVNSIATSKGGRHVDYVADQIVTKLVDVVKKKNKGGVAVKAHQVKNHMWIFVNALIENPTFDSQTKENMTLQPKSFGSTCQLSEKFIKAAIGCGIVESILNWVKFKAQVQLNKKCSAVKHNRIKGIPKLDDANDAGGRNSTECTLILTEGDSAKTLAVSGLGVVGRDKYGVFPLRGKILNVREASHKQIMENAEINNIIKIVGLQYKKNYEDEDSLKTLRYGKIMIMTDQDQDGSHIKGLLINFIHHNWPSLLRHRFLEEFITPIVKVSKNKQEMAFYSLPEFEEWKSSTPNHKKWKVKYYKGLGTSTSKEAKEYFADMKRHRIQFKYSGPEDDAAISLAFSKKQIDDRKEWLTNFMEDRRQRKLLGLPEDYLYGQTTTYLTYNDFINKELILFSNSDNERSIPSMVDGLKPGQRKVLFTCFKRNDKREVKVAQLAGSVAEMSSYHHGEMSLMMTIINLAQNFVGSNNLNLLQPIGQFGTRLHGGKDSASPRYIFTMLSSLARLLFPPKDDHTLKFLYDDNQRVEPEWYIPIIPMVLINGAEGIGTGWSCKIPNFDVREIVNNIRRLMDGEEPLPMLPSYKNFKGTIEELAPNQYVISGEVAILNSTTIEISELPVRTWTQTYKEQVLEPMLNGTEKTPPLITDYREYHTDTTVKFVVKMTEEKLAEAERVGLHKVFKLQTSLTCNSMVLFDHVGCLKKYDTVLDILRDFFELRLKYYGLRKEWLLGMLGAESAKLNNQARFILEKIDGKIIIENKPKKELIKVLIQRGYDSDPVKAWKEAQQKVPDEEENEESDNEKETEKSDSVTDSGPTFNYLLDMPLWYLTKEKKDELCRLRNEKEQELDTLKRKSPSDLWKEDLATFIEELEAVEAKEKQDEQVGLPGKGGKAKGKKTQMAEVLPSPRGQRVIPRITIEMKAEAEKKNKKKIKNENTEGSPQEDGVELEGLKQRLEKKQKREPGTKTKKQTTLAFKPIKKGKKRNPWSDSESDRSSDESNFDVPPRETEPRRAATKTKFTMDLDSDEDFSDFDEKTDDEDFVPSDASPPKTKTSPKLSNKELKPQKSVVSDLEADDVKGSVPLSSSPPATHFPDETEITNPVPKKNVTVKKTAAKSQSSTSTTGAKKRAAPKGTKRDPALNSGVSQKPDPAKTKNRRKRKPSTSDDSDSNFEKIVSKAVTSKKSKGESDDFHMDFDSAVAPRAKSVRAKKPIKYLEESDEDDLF
T1 sequence (Q02880 whole entry): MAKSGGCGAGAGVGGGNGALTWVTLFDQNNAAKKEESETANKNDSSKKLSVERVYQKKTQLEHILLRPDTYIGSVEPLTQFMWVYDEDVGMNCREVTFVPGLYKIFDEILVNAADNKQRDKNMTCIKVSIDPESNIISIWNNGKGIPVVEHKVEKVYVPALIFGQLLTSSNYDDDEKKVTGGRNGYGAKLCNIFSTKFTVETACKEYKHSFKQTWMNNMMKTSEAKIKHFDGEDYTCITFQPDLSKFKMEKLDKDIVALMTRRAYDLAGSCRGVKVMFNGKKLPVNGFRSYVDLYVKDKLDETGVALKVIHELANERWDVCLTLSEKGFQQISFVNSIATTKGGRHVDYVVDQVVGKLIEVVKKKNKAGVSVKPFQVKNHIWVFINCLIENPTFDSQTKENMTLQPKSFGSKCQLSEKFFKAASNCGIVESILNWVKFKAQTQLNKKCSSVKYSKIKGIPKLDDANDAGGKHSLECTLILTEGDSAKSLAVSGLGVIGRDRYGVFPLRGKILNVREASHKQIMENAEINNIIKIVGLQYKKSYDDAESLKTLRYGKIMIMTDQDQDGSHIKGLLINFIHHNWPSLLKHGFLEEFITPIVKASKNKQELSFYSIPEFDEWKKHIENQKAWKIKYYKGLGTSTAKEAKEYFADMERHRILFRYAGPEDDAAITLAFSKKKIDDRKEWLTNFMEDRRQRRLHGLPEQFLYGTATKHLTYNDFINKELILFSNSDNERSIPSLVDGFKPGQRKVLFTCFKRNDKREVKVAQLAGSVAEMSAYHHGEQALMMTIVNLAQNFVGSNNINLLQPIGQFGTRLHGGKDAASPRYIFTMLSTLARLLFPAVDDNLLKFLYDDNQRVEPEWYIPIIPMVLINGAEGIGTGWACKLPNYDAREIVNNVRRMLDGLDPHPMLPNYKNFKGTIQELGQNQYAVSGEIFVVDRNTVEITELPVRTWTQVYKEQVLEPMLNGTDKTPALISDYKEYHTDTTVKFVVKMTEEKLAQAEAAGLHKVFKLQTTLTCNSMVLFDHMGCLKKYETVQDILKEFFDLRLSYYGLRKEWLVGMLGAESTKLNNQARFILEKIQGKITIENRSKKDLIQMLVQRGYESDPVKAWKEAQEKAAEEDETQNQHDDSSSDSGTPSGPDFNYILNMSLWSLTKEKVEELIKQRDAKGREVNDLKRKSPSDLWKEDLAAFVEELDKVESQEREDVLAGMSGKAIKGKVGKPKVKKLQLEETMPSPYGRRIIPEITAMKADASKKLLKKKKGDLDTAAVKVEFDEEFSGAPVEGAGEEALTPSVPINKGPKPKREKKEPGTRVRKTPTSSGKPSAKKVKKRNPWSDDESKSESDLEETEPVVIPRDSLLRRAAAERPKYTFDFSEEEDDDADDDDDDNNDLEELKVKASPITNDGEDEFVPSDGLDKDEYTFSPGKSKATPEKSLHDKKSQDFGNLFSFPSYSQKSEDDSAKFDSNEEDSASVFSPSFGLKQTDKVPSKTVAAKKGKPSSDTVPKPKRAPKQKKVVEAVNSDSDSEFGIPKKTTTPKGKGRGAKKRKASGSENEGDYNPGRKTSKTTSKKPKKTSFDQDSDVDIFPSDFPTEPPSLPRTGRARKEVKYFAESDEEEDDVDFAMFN

## CC(C)[C@@H](N)C(=O)OCCCNc1cccc2c1C(=O)c1ccccc1C2=O.O=C(O)C(F)(F)F [Example 37, 1-[3-(D-valyloxy)propylamino]anthracene-9,10-dione trifluoroacetate]
[1]
  TopIIβ Decat.: 25
[2]
  TopIIβ Relax.: —
[3]
  TopIIα Relax.: —
[4]
  TopIIα Decat.: —

## CC(C)[C@H](N)C(=O)OCCCNc1ccc(O)c2c1C(=O)c1c(O)cccc1C2=O.O=C(O)C(F)(F)F [Example 57, 4,8-dihydroxy-1-[3-(L-valyloxy)propylamino]anthracene-9,10-dione trifluoroacetate]
[1]
  TopIIβ Decat.: 25
[5]
  IC50: 3.8 µM
[2]
  TopIIβ Relax.: 25
[3]
  TopIIα Relax.: —
[4]
  TopIIα Decat.: —

## O=C(O)C(F)(F)F.O=C1c2ccccc2C(=O)c2c(NCCCCOC(=O)[C@H]3CCCN3)cccc21 [Example 49, 1-[4-(D-prolyloxy)butylamino]anthracene-9,10-dione trifluoroacetate]
[2]
  TopIIβ Relax.: 25
[3]
  TopIIα Relax.: 25

## CC(C)[C@H](N)C(=O)OCCCNc1cccc2c1C(=O)c1ccccc1C2=O.O=C(O)C(F)(F)F [Example 35, 1-[3-(L-valyloxy)propylamino]anthracene-9,10-dione trifluoroacetate]
[5]
  IC50: 2.9 µM
[2]
  TopIIβ Relax.: —
[3]
  TopIIα Relax.: —

## CC[C@@]1(O)C(=O)OCc2c1cc1n(c2=O)Cc2cc3ccccc3nc2-1 [campothecin, reference compound]
[6]
  nicked plasmid: 90%

## O=C(O)C(F)(F)F.O=C1c2ccccc2C(=O)c2c(NCCCCOC(=O)[C@@H]3CCCN3)cccc21 [Example 47, 1-[4-(L-prolyloxy)butylamino]anthracene-9,10-dione trifluoroacetate]
[2]
  TopIIβ Relax.: 10
[3]
  TopIIα Relax.: 5

## N[C@@H](Cc1c[nH]c2ccccc12)C(=O)OCCCNc1cccc2c1C(=O)c1ccccc1C2=O.O=C(O)C(F)(F)F [Example 41, 1-[3-(L-tryptophyloxy)propylamino]anthracene-9,10-dione trifluoro-acetate]
[3]
  TopIIα Relax.: —
